# Experimental data reported in patent publication US20130303509A1, “NAMPT INHIBITORS” (AbbVie Inc., priority 2012, published 2013).
# Tested on: PC3 cells
# Assay: NAMPT Cell Proliferation Assay
# Format: cell-based
# Settings: Homo sapiens, PC-3, 120 h, 5 days incubation, cell viability by Cell Titer Glo
# Procedure, shortened: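 Five-day CellTiter-Glo viability readout in PC3 cells grown in RPMI/10% heat-inactivated FBS. Compounds added after overnight attachment as a 10-fold dilution series, […]. Percent inhibition fitted to sigmoidal dose-response to derive IC50.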
row,Structure (SMILES),IC50 [nM]
1,"CC(C)C(C)C(=O)N1CCC(c2ccc(NC(=O)C3CN(c4cccnc4)C3)cc2)CC1 (centres unmarked) [Example 139, N-{4-[1-(2,3-dimethylbutanoyl)piperidin-4-yl]phenyl}-1-(pyridin-3-yl)azetidine-3-carboxamide]",0.18
2,"CC(C)(C)CC(=O)N1CCC(c2ccc(NC(=O)C3CN(c4ccnnc4)C3)cc2)CC1 [Example 140, N-{4-[1-(3,3-dimethylbutanoyl)piperidin-4-yl]phenyl}-1-(pyridazin-4-yl)azetidine-3-carboxamide]",3.54
3,"CC(C)(O)C(=O)N1CCC(c2ccc(NC(=O)[C@H]3CCN(c4ccnnc4)C3)cc2)CC1 [Example 141, (3S)—N-{4-[1-(2-hydroxy-2-methylpropanoyl)piperidin-4-yl]phenyl}-1-(pyridazin-4-yl)pyrrolidine-3-carboxamide]",834
4,"O=C(Nc1ccc(C2CCN(C(=O)CC3CCCC3)CC2)cc1)[C@H]1CCN(c2ccnnc2)C1 [Example 142, (3S)—N-{4-[1-(cyclopentylacetyl)piperidin-4-yl]phenyl}-1-(pyridazin-4-yl)pyrrolidine-3-carboxamide]",741
5,"CC[C@H](C)C(=O)N1CCC(c2ccc(NC(=O)C3CN(c4ccnnc4)C3)cc2)CC1 [Example 143, N-(4-{1-[(2S)-2-methylbutanoyl]piperidin-4-yl}phenyl)-1-(pyridazin-4-yl)azetidine-3-carboxamide]",4.96
6,"O=C(Nc1ccc(C2CCN(C(=O)CC3CCCC3)CC2)cc1)C1CN(c2ccnnc2)C1 [Example 144, N-{4-[1-(cyclopentylacetyl)piperidin-4-yl]phenyl}-1-(pyridazin-4-yl)azetidine-3-carboxamide]",18.4
7,"O=C(Nc1ccc(C2CCN(C(=O)CC3CCOCC3)CC2)cc1)C1CN(c2ccnnc2)C1 [Example 145, 1-(pyridazin-4-yl)-N-{4-[1-(tetrahydro-2H-pyran-4-ylacetyl)piperidin-4-yl]phenyl}azetidine-3-carboxamide]",70.9
8,"O=C(Nc1ccc(C2CCN(C(=O)C3CCOCC3)CC2)cc1)C1CN(c2ccnnc2)C1 [Example 146, 1-(pyridazin-4-yl)-N-{4-[1-(tetrahydro-2H-pyran-4-ylcarbonyl)piperidin-4-yl]phenyl}azetidine-3-carboxamide]",70.7
9,"CC(C)C(=O)N1CCC(c2ccc(NC(=O)C3CN(c4cccnn4)C3)cc2)CC1 [Example 147, N-{4-[1-(2-methylpropanoyl)piperidin-4-yl]phenyl}-1-(pyridazin-3-yl)azetidine-3-carboxamide]",0.95
10,"CC(C)Cn1cc(-c2ccc(NC(=O)C3CN(c4ccnnc4)C3)cc2)cn1 [Example 148, N-{4-[1-(2-methylpropyl)-1H-pyrazol-4-yl]phenyl}-1-(pyridazin-4-yl)azetidine-3-carboxamide]",76.1
11,"Cc1ncccc1N1CC(C(=O)Nc2ccc(C3CCN(C(=O)c4ccccc4)CC3)cc2)C1 [Example 149, N-[4-(1-benzoylpiperidin-4-yl)phenyl]-1-(2-methylpyridin-3-yl)azetidine-3-carboxamide]",58
12,"Cc1ncccc1N1CC(C(=O)Nc2ccc(C3CCN(C(=O)c4ccccc4F)CC3)cc2)C1 [Example 150, N-{4-[1-(2-fluorobenzoyl)piperidin-4-yl]phenyl}-1-(2-methylpyridin-3-yl)azetidine-3-carboxamide]",58.9
13,"Cc1ncccc1N1CC(C(=O)Nc2ccc(C3CCN(C(=O)c4ccccc4Cl)CC3)cc2)C1 [Example 151, N-{4-[1-(2-chlorobenzoyl)piperidin-4-yl]phenyl}-1-(2-methylpyridin-3-yl)azetidine-3-carboxamide]",60.9
14,"Cc1ncccc1N1CC(C(=O)Nc2ccc(C3CCN(C(=O)c4cccc(F)c4)CC3)cc2)C1 [Example 152, N-{4-[1-(3-fluorobenzoyl)piperidin-4-yl]phenyl}-1-(2-methylpyridin-3-yl)azetidine-3-carboxamide]",116
15,"Cc1ncccc1N1CC(C(=O)Nc2ccc(C3CCN(C(=O)c4cccc(Cl)c4)CC3)cc2)C1 [Example 153, N-{4-[1-(3-chlorobenzoyl)piperidin-4-yl]phenyl}-1-(2-methylpyridin-3-yl)azetidine-3-carboxamide]",699
16,"Cc1ncccc1N1CC(C(=O)Nc2ccc(C3CCN(C(=O)c4cc(Cl)cc(Cl)c4)CC3)cc2)C1 [Example 154, N-{4-[1-(3,5-dichlorobenzoyl)piperidin-4-yl]phenyl}-1-(2-methylpyridin-3-yl)azetidine-3-carboxamide]",803
17,"Cc1ncccc1N1CC(C(=O)Nc2ccc(C3CCN(C(=O)c4ccc(F)cc4)CC3)cc2)C1 [Example 155, N-{4-[1-(4-fluorobenzoyl)piperidin-4-yl]phenyl}-1-(2-methylpyridin-3-yl)azetidine-3-carboxamide]",701
18,"Cc1ncccc1N1CC(C(=O)Nc2ccc(C3CCN(C(=O)c4ccc(Cl)cc4)CC3)cc2)C1 [Example 156, N-{4-[1-(4-chlorobenzoyl)piperidin-4-yl]phenyl}-1-(2-methylpyridin-3-yl)azetidine-3-carboxamide]",712

row,Structure (SMILES),IC50 [nM]
1,"Cc1ncccc1N1CC(C(=O)Nc2ccc(C3CCN(C(=O)c4ccc(C(F)(F)F)cc4)CC3)cc2)C1 [Example 157, 1-(2-methylpyridin-3-yl)-N-(4-{1-[4-(trifluoromethyl)benzoyl]piperidin-4-yl}phenyl)azetidine-3-carboxamide]",948
2,"Cc1ncccc1N1CC(C(=O)Nc2ccc(C3CCN(C(=O)c4cccnn4)CC3)cc2)C1 [Example 158, 1-(2-methylpyridin-3-yl)-N-{4-[1-(pyridazin-3-ylcarbonyl)piperidin-4-yl]phenyl}azetidine-3-carboxamide]",1300
3,"CCCCC(=O)N1CCC(c2ccc(NC(=O)C3CN(c4cccnc4C)C3)cc2)CC1 [Example 159, 1-(2-methylpyridin-3-yl)-N-[4-(1-pentanoylpiperidin-4-yl)phenyl]azetidine-3-carboxamide]",182
4,"CCC(C)CC(=O)N1CCC(c2ccc(NC(=O)C3CN(c4cccnc4C)C3)cc2)CC1 (centres unmarked) [Example 160, N-{4-[1-(3-methylpentanoyl)piperidin-4-yl]phenyl}-1-(2-methylpyridin-3-yl)azetidine-3-carboxamide]",173
5,"Cc1ncccc1N1CC(C(=O)Nc2ccc(C3CCN(C(=O)CC4C[C@@H]5CC[C@H]4C5)CC3)cc2)C1 (stereo partly drawn) [Example 161, N-(4-{1-[(1S,4R)-bicyclo[2.2.1]hept-2-ylacetyl]piperidin-4-yl}phenyl)-1-(2-methylpyridin-3-yl)azetidine-3-carboxamide]",213
6,"Cc1ncccc1N1CC(C(=O)Nc2ccc(C3CCN(C(=O)CC4CCCC4)CC3)cc2)C1 [Example 162, N-{4-[1-(cyclopentylacetyl)piperidin-4-yl]phenyl}-1-(2-methylpyridin-3-yl)azetidine-3-carboxamide]",225
7,"Cc1ncccc1N1CC(C(=O)Nc2ccc(C3CCN(C(=O)C4CC4C)CC3)cc2)C1 (centres unmarked) [Example 163, N-(4-{1-[(2-methylcyclopropyl)carbonyl]piperidin-4-yl}phenyl)-1-(2-methylpyridin-3-yl)azetidine-3-carboxamide]",120
8,"Cc1ncccc1N1CC(C(=O)Nc2ccc(C3CCN(C(=O)CN4CCOCC4)CC3)cc2)C1 [Example 164, 1-(2-methylpyridin-3-yl)-N-{4-[1-(morpholin-4-ylacetyl)piperidin-4-yl]phenyl}azetidine-3-carboxamide]",202
9,"Cc1ncccc1N1CC(C(=O)Nc2ccc(C3CCN(C(=O)c4ccoc4)CC3)cc2)C1 [Example 165, N-{4-[1-(furan-3-ylcarbonyl)piperidin-4-yl]phenyl}-1-(2-methylpyridin-3-yl)azetidine-3-carboxamide]",68.2
10,"Cc1ncccc1N1CC(C(=O)Nc2ccc(C3CCN(C(=O)CN4CCCC4)CC3)cc2)C1 [Example 166, 1-(2-methylpyridin-3-yl)-N-{4-[1-(pyrrolidin-1-ylacetyl)piperidin-4-yl]phenyl}azetidine-3-carboxamide]",1070
11,"Cc1ncccc1N1CC(C(=O)Nc2ccc(C3CCN(C(=O)[C@H]4CCC(=O)N4)CC3)cc2)C1 [Example 167, 1-(2-methylpyridin-3-yl)-N-{4-[1-(5-oxo D-prolyl)piperidin-4-yl]phenyl}azetidine-3-carboxamide]",6250
12,"Cc1ncccc1N1CC(C(=O)Nc2ccc(C3CCN(C(=O)CCN(C)C)CC3)cc2)C1 [Example 168, N-{4-[1-(N,N-dimethyl-beta-alanyl)piperidin-4-yl]phenyl}-1-(2-methylpyridin-3-yl)azetidine-3-carboxamide]",1010
13,"Cc1ncccc1N1CC(C(=O)Nc2ccc(C3CCN(C(=O)c4ccsc4)CC3)cc2)C1 [Example 169, 1-(2-methylpyridin-3-yl)-N-{4-[1-(thiophen-3-ylcarbonyl)piperidin-4-yl]phenyl}azetidine-3-carboxamide]",65.4
14,"Cc1ncccc1N1CC(C(=O)Nc2ccc(C3CCN(C(=O)C4(C)CC4)CC3)cc2)C1 [Example 170, N-(4-{1-[(1-methylcyclopropyl)carbonyl]piperidin-4-yl}phenyl)-1-(2-methylpyridin-3-yl)azetidine-3-carboxamide]",65.5
15,"Cc1ccsc1C(=O)N1CCC(c2ccc(NC(=O)C3CN(c4cccnc4C)C3)cc2)CC1 [Example 171, 1-(2-methylpyridin-3-yl)-N-(4-{1-[(3-methylthiophen-2-yl)carbonyl]piperidin-4-yl}phenyl)azetidine-3-carboxamide]",68.1
16,"Cc1ncccc1N1CC(C(=O)Nc2ccc(C3CCN(C(=O)CCC(F)(F)F)CC3)cc2)C1 [Example 172, 1-(2-methylpyridin-3-yl)-N-{4-[1-(4,4,4-trifluorobutanoyl)piperidin-4-yl]phenyl}azetidine-3-carboxamide]",329
17,"Cc1ncccc1N1CC(C(=O)Nc2ccc(C3CCN(C(=O)CN4CCN(C)CC4)CC3)cc2)C1 [Example 173, N-(4-{1-[(4-methylpiperazin-1-yl)acetyl]piperidin-4-yl}phenyl)-1-(2-methylpyridin-3-yl)azetidine-3-carboxamide]",627
